A short description of data set [1]: α-helicity by circular dichroism. It is filed as physicochemical. To be noted: CD, aqueous solution containing 50% trifluoroethanol, from [θ]222, 25 °C. As to the method:
cm2 ∙ dmol−1) after subtracting the background using the following equation:
[θ]=(θ×1000)/( c ×l ×n ), among which, θ is the ellipticity recorded (mdeg), c is the concentration of peptide (M), l is the quartz cuvette’s optical path length (cm), and n is the amino acid number of the peptide. The helicity of peptides was calculated using the following equation: α = [θ]222/[θ]max ×100%, where [θ]222 is the mean residue ellipticity of the peptide at 222 nm; [ θ]max = (−44,000 +250T) (1−k/n), k = 4, n is the number of amino acids, T = 25 °C.
Bacterial strains and culture
Bacterial type stains ATCC 25923 S. aureus, ATCC 12228 S. epidermidis, ATCC […]
aeruginosa and ATCC 13883 K. pneumoniae were obtained from Shanghai Bioresource Collection Center. The bacterial culture medium was purchased from Oxoid and autoclaved according to the instructions from manufacturer. […]
The minimal inhibition concentration (MIC) of the linear and stapled peptides was determined using the microbroth dilution method from the Clinical and Laboratory Standards Institute (CLSI)[2, 3]. […]
10 μL AlamarBlue cell viability reagent (ThermoFisher Scientific, UK) was added to each well, then the plate was re -incubated for a further 2 hours at 37 °C. The MIC was recorded as the minimum concentration of peptides required to completely in hibit bacteria growth. […]

For data set [2], the system named is rabbit erythrocytes. Put plainly: Hemolysis assay. Conditions: rabbit erythrocytes 4% (v/v), 256 μg/mL peptide, 1 h 37 °C, absorbance 570 nm, 0.1% Triton X-100 control. As to the method: The hemolytic activity of peptides was tested using rabbit erythrocytes (Figure S13). […]
the supernatant was collected and analyzed by RP-HPLC, with a UV detector monitored at 220 nm. Record the peak area of the intact peptide and calculate the percentage of remaining peptide based on the integrated area as, Peptide remaining (%) = peak area of remaining peptide/peak area of intact peptide×100%. Experiments were performed […]
with 200 μL of 4% (v/v) rabbit erythrocyte suspension, and the mixed solution was diluted with rabbit red blood cell suspension to obtain a series of peptide stock solution with different concentrations by fold dilution. […] Separate the supernatant and use a microplate reader (BioTek, USA) to measure hemoglobin release. Measure the absorbance at a wavelength of 570nm and calculate the percentage of hemolysis as follows: hemolysis (%) = (Abspeptide-Absblank)/(Abscontrol-Absblank), where Absblank and Abscontrol were absorbance of samples treated with PBS and 0.1% Triton X-100, […]
N-phenyl-1-naphthylamine (NPN, Macklin, China) was used to evaluate the integrity of OM of E. coli treated with the linear and stapled peptides. […] Subsequently, add a final concentration of 10 μM of NPN in each well of the plate and after incubation for 30 m inutes, record the fluorescence at 420 nm using a microplate reader with an exc itation wavelength of 350 […]

SMILES strings stand for the structures. Positions of bridges follow the written chain, without caps; N, C: chain ends. Non-standard residues stand in square brackets, D forms with d. Residues, ends and D or L forms follow the SMILES beside them. S5 = C=CCCC[C@](C)(N)C(=O)O

`CC[C@H](C)[C@H](NC(=O)[C@H](CCCNC(=N)N)NC(=O)[C@H](CCCCN)NC(C)=O)C(=O)N[C@H](C(=O)N[C@@H](CCC(N)=O)C(=O)N[C@@H](CCCNC(=N)N)C(=O)N[C@H](C(=O)N[C@@]1(C)CCCC=CCCC[C@@](C)(C(N)=O)NC(=O)[C@H](CC(C)C)NC(=O)[C@H](Cc2ccccc2)NC(=O)[C@H](CC(=O)O)NC1=O)[C@@H](C)CC)C(C)C` [KR-12 (K8, R12)] (Ac-KRIVQRI[S5]DFL[S5]-NH2; staple 8-12) showed a α-helicity in data set [1] of 50.0 ± 0.6%. In data set [2], the “H256 (hemolysis percentage)” value is 77.2 ± 0.3%.

The record behind these values is article PMC10845205, “Discovery of novel antibacterial agent for the infected wound treatment: all-hydrocarbon stapling optimization of LL-37” (Theranostics, 2024).
